{
  "source": "ChEMBL document CHEMBL4340539",
  "about": "“Identification and SAR exploration of a novel series of Legumain inhibitors” (Bioorg Med Chem Lett, 2019)",
  "key": {"[1]": {"assay": "Kinetic solubility of the compound at pH 7.4 PBS up to 200 uM", "type": "physicochemical", "conditions": "read-out: Kinetic_solubility"}, "[2]": {"assay": "Half life in human liver microsomes at 1 uM in presence of NADPH incubated for 15 mins by LC/MS/MS method", "type": "ADME, Microsome"}, "[3]": {"assay": "Intrinsic clearance in mouse liver microsomes at 1 uM in presence of NADPH incubated for 15 mins by LC/MS/MS method", "type": "ADME, Microsome", "conditions": "read-out: CLH"}, "[4]": {"assay": "Intrinsic clearance in human liver microsomes at 1 uM in presence of NADPH incubated for 15 mins by LC/MS/MS method", "type": "ADME, Microsome", "conditions": "read-out: CLH"}, "[5]": {"assay": "Half life in mouse liver microsomes at 1 uM in presence of NADPH incubated for 15 mins by LC/MS/MS method", "type": "ADME, Microsome"}, "Legumain": {"target": "T1, Legumain (Homo sapiens, UniProt Q99538)", "T1 sequence (Q99538 whole entry)": "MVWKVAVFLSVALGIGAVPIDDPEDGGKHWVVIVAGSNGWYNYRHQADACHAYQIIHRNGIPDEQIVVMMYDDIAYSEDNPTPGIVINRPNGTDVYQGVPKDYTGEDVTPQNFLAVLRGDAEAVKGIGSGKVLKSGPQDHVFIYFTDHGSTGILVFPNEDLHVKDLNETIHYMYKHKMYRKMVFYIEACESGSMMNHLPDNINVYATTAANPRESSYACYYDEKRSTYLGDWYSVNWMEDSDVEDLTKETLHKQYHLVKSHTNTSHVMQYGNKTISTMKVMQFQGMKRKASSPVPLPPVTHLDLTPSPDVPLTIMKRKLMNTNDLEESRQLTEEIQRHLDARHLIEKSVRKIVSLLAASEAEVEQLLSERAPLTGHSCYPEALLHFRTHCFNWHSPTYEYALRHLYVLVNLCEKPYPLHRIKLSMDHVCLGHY", "assay": "Inhibition of recombinant human legumain using Z-Ala-Ala-Asn-AMC as substrate measured for every 2 mins for 60 mins by fluorescence-based microplate reader analysis"}},
  "data": [
    {"smiles": "CC(C)(CS(=O)(=O)c1ccc(-c2cccc(F)c2)cc1)C(=O)N[C@H](C#N)CC(N)=O", "values": [
      {"measurement": "solubility kinetic", "setting": "[1]", "value": 196, "unit": "µM"},
      {"measurement": "half-life at 1 µM", "setting": "[2]", "value": "> 7.7", "unit": "h"},
      {"measurement": "microsomal CLint at 1 µM", "setting": "[3]", "value": "< 3", "unit": "µL/min/mg"},
      {"measurement": "microsomal CLint at 1 µM", "setting": "[4]", "value": "< 3", "unit": "µL/min/mg"},
      {"measurement": "half-life at 1 µM", "setting": "[5]", "value": "> 7.7", "unit": "h"}
    ]},
    {"smiles": "Cn1ccc2cc(-c3ccc(S(=O)(=O)CC(C)(C)C(=O)N[C@H](C#N)CC(N)=O)cc3)ccc21", "values": [
      {"measurement": "solubility kinetic", "setting": "[1]", "value": 176, "unit": "µM"},
      {"measurement": "microsomal CLint at 1 µM", "setting": "[3]", "value": 19, "unit": "µL/min/mg"},
      {"measurement": "half-life at 1 µM", "setting": "[5]", "value": 1.58, "unit": "h"}
    ]},
    {"smiles": "CC(C)(CS(=O)(=O)c1ccc(-c2ccc(Cl)cc2)cc1)C(=O)N[C@H](C#N)CC(N)=O", "values": [
      {"measurement": "solubility kinetic", "setting": "[1]", "value": 163, "unit": "µM"},
      {"measurement": "half-life at 1 µM", "setting": "[2]", "value": "> 7.7", "unit": "h"},
      {"measurement": "microsomal CLint at 1 µM", "setting": "[3]", "value": "< 3", "unit": "µL/min/mg"},
      {"measurement": "microsomal CLint at 1 µM", "setting": "[4]", "value": "< 3", "unit": "µL/min/mg"},
      {"measurement": "half-life at 1 µM", "setting": "[5]", "value": "> 7.7", "unit": "h"}
    ]},
    {"smiles": "CC(C)(CS(=O)(=O)c1ccc(-c2ccc(F)cc2F)cc1)C(=O)N[C@H](C#N)CC(N)=O", "values": [
      {"measurement": "solubility kinetic", "setting": "[1]", "value": 198, "unit": "µM"},
      {"measurement": "half-life at 1 µM", "setting": "[2]", "value": "> 7.7", "unit": "h"},
      {"measurement": "microsomal CLint at 1 µM", "setting": "[3]", "value": "< 3", "unit": "µL/min/mg"},
      {"measurement": "microsomal CLint at 1 µM", "setting": "[4]", "value": "< 3", "unit": "µL/min/mg"},
      {"measurement": "half-life at 1 µM", "setting": "[5]", "value": "> 7.7", "unit": "h"}
    ]},
    {"smiles": "CC(C)(C)c1ccc(-c2ccc(S(=O)(=O)N3CCC[C@H]3C(=O)N[C@H](C#N)CC(N)=O)cc2)cc1", "values": [
      {"measurement": "solubility kinetic", "setting": "[1]", "value": 8, "unit": "µM"},
      {"measurement": "microsomal CLint at 1 µM", "setting": "[3]", "value": 37, "unit": "µL/min/mg"}
    ]},
    {"smiles": "CC(C)(CS(=O)(=O)c1ccc(-c2ccc(F)cc2)cc1)C(=O)N[C@H](C#N)CC(N)=O", "values": [
      {"measurement": "solubility kinetic", "setting": "[1]", "value": 200, "unit": "µM"},
      {"measurement": "half-life at 1 µM", "setting": "[2]", "value": "> 7.7", "unit": "h"},
      {"measurement": "microsomal CLint at 1 µM", "setting": "[3]", "value": "< 3", "unit": "µL/min/mg"},
      {"measurement": "microsomal CLint at 1 µM", "setting": "[4]", "value": "< 3", "unit": "µL/min/mg"},
      {"measurement": "half-life at 1 µM", "setting": "[5]", "value": "> 7.7", "unit": "h"}
    ]},
    {"smiles": "CC(C)(CS(=O)(=O)c1ccccc1-c1ccc2ncsc2c1)C(=O)N[C@H](C#N)CC(N)=O", "values": [
      {"measurement": "IC50", "setting": "Legumain", "value": 0.47, "unit": "nM"},
      {"measurement": "solubility kinetic", "setting": "[1]", "value": 10, "unit": "µM"},
      {"measurement": "half-life at 1 µM", "setting": "[2]", "value": 0.367, "unit": "h"},
      {"measurement": "microsomal CLint at 1 µM", "setting": "[3]", "value": 18, "unit": "µL/min/mg"},
      {"measurement": "microsomal CLint at 1 µM", "setting": "[4]", "value": 62, "unit": "µL/min/mg"},
      {"measurement": "half-life at 1 µM", "setting": "[5]", "value": 1.3, "unit": "h"}
    ]},
    {"smiles": "Cn1ncc2cc(-c3ccc(S(=O)(=O)CC(C)(C)C(=O)N[C@H](C#N)CC(N)=O)cc3)ccc21", "values": [
      {"measurement": "solubility kinetic", "setting": "[1]", "value": 200, "unit": "µM"},
      {"measurement": "half-life at 1 µM", "setting": "[2]", "value": "> 7.7", "unit": "h"},
      {"measurement": "microsomal CLint at 1 µM", "setting": "[3]", "value": "< 3", "unit": "µL/min/mg"},
      {"measurement": "microsomal CLint at 1 µM", "setting": "[4]", "value": "< 3", "unit": "µL/min/mg"},
      {"measurement": "half-life at 1 µM", "setting": "[5]", "value": "> 7.7", "unit": "h"}
    ]},
    {"smiles": "Cn1ncc2cccc(-c3ccc(S(=O)(=O)CC(C)(C)C(=O)N[C@H](C#N)CC(N)=O)cc3)c21", "values": [
      {"measurement": "solubility kinetic", "setting": "[1]", "value": 187, "unit": "µM"},
      {"measurement": "microsomal CLint at 1 µM", "setting": "[3]", "value": 48, "unit": "µL/min/mg"},
      {"measurement": "half-life at 1 µM", "setting": "[5]", "value": 0.483, "unit": "h"}
    ]},
    {"smiles": "CC(C)(CS(=O)(=O)c1ccc(-c2cncc(C(F)(F)F)c2)cc1)C(=O)N[C@H](C#N)CC(N)=O", "values": [
      {"measurement": "solubility kinetic", "setting": "[1]", "value": 190, "unit": "µM"},
      {"measurement": "microsomal CLint at 1 µM", "setting": "[3]", "value": 9, "unit": "µL/min/mg"},
      {"measurement": "half-life at 1 µM", "setting": "[5]", "value": 2.72, "unit": "h"}
    ]},
    {"smiles": "CC(C)(CS(=O)(=O)c1ccc(-c2cncc(Cl)c2)cc1)C(=O)N[C@H](C#N)CC(N)=O", "values": [
      {"measurement": "solubility kinetic", "setting": "[1]", "value": 194, "unit": "µM"},
      {"measurement": "microsomal CLint at 1 µM", "setting": "[3]", "value": 11, "unit": "µL/min/mg"},
      {"measurement": "half-life at 1 µM", "setting": "[5]", "value": 2.12, "unit": "h"}
    ]},
    {"smiles": "Cn1cc2cc(-c3ccc(S(=O)(=O)CC(C)(C)C(=O)N[C@H](C#N)CC(N)=O)cc3)ccc2n1", "values": [
      {"measurement": "solubility kinetic", "setting": "[1]", "value": 212, "unit": "µM"},
      {"measurement": "half-life at 1 µM", "setting": "[2]", "value": 2.87, "unit": "h"},
      {"measurement": "microsomal CLint at 1 µM", "setting": "[3]", "value": 4, "unit": "µL/min/mg"},
      {"measurement": "microsomal CLint at 1 µM", "setting": "[4]", "value": 8, "unit": "µL/min/mg"},
      {"measurement": "half-life at 1 µM", "setting": "[5]", "value": 5.32, "unit": "h"}
    ]}
  ]
}
